Experimental data reported in patent US4078079A, “Thiocyano-xanthate miticides” (Stauffer Chemical Company, priority 1976, dated 1978).
Converted amounts (≈) assume the structure as drawn.

Columns and labels:
Staphylococcus aureus [1] = test: Staphylococcus Aureus Use Dilution Test; type: cell-based; conditions: Tryptic Soy Broth, 24 hours, 37° C, read-out: Minimum Inhibitory Concentration
Experimental: This test measures the bacteriostatic effectiveness of a particular test compound against Staphylococcus aureus. Tryptic Soy Broth is dispensed aseptically into sterile 13 × 100 mm. clear glass culture tubes. The first tube receives 3.6 ml. of medium and tubes 2 through 10 receive 2.0 ml. of medium. The test compound is dissolved in acetone to give 10 ml. of a solution of 0.10% of the test compound. Using a sterile syringe, 0.4 ml. of the test compound solution is placed in the first tube containing the 3.6 ml. of sterile broth and mixed thoroughly. This operation is continued through to the tenth tube. From the tenth tube, 2.0 ml. of solution is removed and discarded. Each tube is then innoculated with 0.1 ml. of a 24 hour culture of Staphylococcus aureus in Tryptic Soy Broth, and the mixture is mixed thoroughly using a Vortex mixer. A control is also set up to be sure that the inoculum is viable using a tube of sterile broth containing no added toxicant. The tubes are incubated for 24 hours at 37° C. The tubes are then examined to determine growth of the organism in the culture tubes. The minimum concentration in which no growth of the organism occurs is recorded. The following table gives the minimum inhibitory concentration necessary to control the organism: […]

Bacillus cereus = test: In Vitro Agar Screening Tests (Example 4); type: cell-based; conditions: nutrient agar, 37° C, read-out: Minimum Inhibitory Concentration
Experimental: (§1) This test measures the bactericidal, fungicidal and algaecidal properties of a compound when in contact with growing bacteria, fungi or algae in an artificial medium. The test is conducted by adding 20 ml. portions of a suitable warm sterile agar solution into 20 × 100 Petri dishes. Then, the text compound, in 0.5% acetone solution, is added to the Petri dishes at levels of 1, 5, 10 and 50 μg/ml. and mixed with the warm mobile agar solution. The treated agar mixture is then allowed to come to room temperature and solidify. Cells of the chosen organism are streaked on the surface of the solidified agar and are then incubated for such lengths of time that untreated samples containing no toxicant show luxurious growth typical of the particular organism. This time varies from 24 hours to one week depending on the particular organism. The fungi are incubated at 30° C and the bacteria are incubated at 37° C. The algae are incubated at room temperature under artificial light. Nutrient agar is used as the medium in this test for the bacteria. Potato dextrose agar is used as the medium for the fungi with the exception of Trichophyton mentagrophytes for which Emmons agar is used. A modified Jack Meyers agar is used for the growth of the algae.
(§2) The extent of growth is noted at the end of the incubation period.

Aspergillus fumigatus = test: In Vitro Agar Screening Tests (Example 4); type: cell-based; conditions: potato dextrose agar, 30° C, read-out: Minimum Inhibitory Concentration
Experimental: as §1, §2

Trichoderma sp. = test: In Vitro Agar Screening Tests (Example 4); type: cell-based; conditions: potato dextrose agar, 30° C, partial control at this concentration, read-out: Minimum Inhibitory Concentration
Experimental: as §1, §2

Staphylococcus aureus [2] = test: In Vitro Agar Screening Tests (Example 4); type: cell-based; conditions: nutrient agar, 37° C, read-out: Minimum Inhibitory Concentration
Experimental: as §1, §2

[3] = system: Brevibacterium ammoniagenes; test: In Vitro Agar Screening Tests (Example 4); type: cell-based; conditions: Corynebacterium ammoniagenes, nutrient agar, 37° C, read-out: Minimum Inhibitory Concentration
Experimental: as §1, §2

Escherichia coli = test: In Vitro Agar Screening Tests (Example 4); type: cell-based; conditions: nutrient agar, 37° C, read-out: Minimum Inhibitory Concentration
Experimental: as §1, §2

[4] = system: Trichophyton mentagrophytes; test: In Vitro Agar Screening Tests (Example 4); type: cell-based; conditions: Emmons agar, 30° C, partial control at this concentration, read-out: Minimum Inhibitory Concentration
Experimental: as §1, §2

Penicillium italicum = test: In Vitro Agar Screening Tests (Example 4); type: cell-based; conditions: potato dextrose agar, 30° C, read-out: Minimum Inhibitory Concentration
Experimental: as §1, §2

Pseudomonas fluorescens = test: In Vitro Agar Screening Tests (Example 4); type: cell-based; conditions: nutrient agar, 37° C, read-out: Minimum Inhibitory Concentration
Experimental: as §1, §2

Euglena gracilis = test: In Vitro Agar Screening Tests (Example 4); type: cell-based; conditions: modified Jack Meyers agar, room temperature, artificial light, read-out: Minimum Inhibitory Concentration
Experimental: as §1, §2

Scenedesmus obliquus = test: In Vitro Agar Screening Tests (Example 4); type: cell-based; conditions: Tetradesmus obliquus, modified Jack Meyers agar, room temperature, artificial light, read-out: Minimum Inhibitory Concentration
Experimental: as §1, §2

Aspergillus niger = test: In Vitro Agar Screening Tests (Example 4); type: cell-based; conditions: potato dextrose agar, 30° C, read-out: Minimum Inhibitory Concentration
Experimental: as §1, §2

Chlorella pyrenoidosa = test: In Vitro Agar Screening Tests (Example 4); type: cell-based; conditions: Auxenochlorella pyrenoidosa, modified Jack Meyers agar, room temperature, artificial light, read-out: Minimum Inhibitory Concentration
Experimental: as §1, §2

Rhizopus stolonifer = test: In Vitro Agar Screening Tests (Example 4); type: cell-based; conditions: potato dextrose agar, 30° C, partial control at this concentration, read-out: Minimum Inhibitory Concentration
Experimental: as §1, §2

Pencillium vermiculatum = test: In Vitro Agar Screening Tests (Example 4); type: cell-based; conditions: potato dextrose agar, 30° C, read-out: Minimum Inhibitory Concentration
Experimental: as §1, §2

Pseudomonas aeruginosa = test: In Vitro Agar Screening Tests (Example 4); type: cell-based; conditions: nutrient agar, 37° C, read-out: Minimum Inhibitory Concentration
Experimental: as §1, §2

Enterobacter aerogenes = test: In Vitro Agar Screening Tests (Example 4); type: cell-based; conditions: Klebsiella aerogenes, nutrient agar, 37° C, read-out: Minimum Inhibitory Concentration
Experimental: as §1, §2

Aspergillus oryzae = test: In Vitro Agar Screening Tests (Example 4); type: cell-based; conditions: potato dextrose agar, 30° C, partial control at this concentration, read-out: Minimum Inhibitory Concentration
Experimental: as §1, §2

Pencillium ochra-chloron = test: In Vitro Agar Screening Tests (Example 4); type: cell-based; conditions: potato dextrose agar, 30° C, partial control at this concentration, read-out: Minimum Inhibitory Concentration
Experimental: as §1, §2

Pencillium expansum = test: In Vitro Agar Screening Tests (Example 4); type: cell-based; conditions: potato dextrose agar, 30° C, partial control at this concentration, read-out: Minimum Inhibitory Concentration
Experimental: as §1, §2

[5] = system: Desulfovibrio desulfuricans; test: Sulfate Reducing Bacteria In Vitro Test; type: cell-based; conditions: Sulfate API broth with tryptone, anaerobic, room temperature, 3 to 5 days, read-out: minimum inhibitory concentration necessary to control the organism
Experimental: This test measures the bactericidal properties of a compound when in contact with a sulfate reducing bacteria, specifically Desulfovibrio desulfuricans. The test is conducted by dissolving the test compound in acetone to give an 0.5% solution. This toxicant is added to vials containing sterile Sulfate API broth with tryptone under anaerobic conditions at such levels to give final toxicant concentrations of 1, 5, 10 and 50 ug/ml. of solution. An inoculant solution of 0.5 ml. of the growing organism, Desulfovibrio desulfuricans, is added to the vials followed by sufficient sterile distilled water to give a total of 10 ml. of solution in the vials. The vials are incubated at room temperature for 3 to 5 days until untreated controls show growth of the organism as indicated by the black color development in the vials. The following is a summary of the minimum inhibitory concentration necessary to control the organism.

Phoma herbarum = test: Biocide Testing Procedure (malt extract broth); type: cell-based; conditions: 168 h, one week, read-out: lowest concentration which provides 50% inhibition of growth
Experimental: Biocide Testing Procedure Tubes of sterilized nutrient and malt extract broth are prepared. Aliquots of the toxicant, dissolved in an appropriate solvent, are injected through the stopper, into the broth, to provide concentrations ranging from 50 ppm downward. The test organism is a fungus, Phoma herbarum. Three drops of a spore suspension of the fungus are injected into the tubes of malt broth. One week later the growth of the organism is observed and effectiveness of the chemical is recorded as the lowest concentration in ppm which provides 50% inhibition of growth as compared to untreated inoculated tube.

[6] = system: Two-spotted Mite (2-SM) Tetranychus urticae (Koch); test: Plant Dip Assay on Two-Spotted Mite, 2-SM PE; type: in vivo; conditions: infested Pinto Bean plants dipped 2-3 seconds, mortality after seven days, adult mites
Source text: The Two-spotted Mite (2-SM) Tetranychus urticae (Koch) is subjected to evaluation tests for miticidal activity. Plant Dip Assay on Two-Spotted Mite [Tetranychus urticae (Koch)] Pinto Bean plants (Phaseolus sp.) approximately 10 cm tall, are transplanted into sandy loam soil in 3 inch clay pots and thoroughly infested with two-spotted mites of mixed ages and sexes. Twenty-four hours later the infested plants are inverted and dipped for 2-3 seconds in 50-50 acetone-water solutions of the test chemicals. Treated plants are held in the greenhouse, and seven days later mortality is determined for both the adult mites and the nymphs hatching from eggs which were on the plants at the time of treatment. Test concentrations range from 0.05% down to that at which 50% mortality occurs. The values obtained in this test are found in Table VII under the Columns 2SM-PE and 2SM-Eggs.

MIC (Staphylococcus aureus [1]): 50 µg/mL (≈ 211 µM) | MIC (Bacillus cereus): > 50 µg/mL | MIC (Aspergillus fumigatus): 5 µg/mL (≈ 21.1 µM) | MIC (Trichoderma sp.): 10 µg/mL (≈ 42.1 µM) | MIC (Staphylococcus aureus [2]): 5 µg/mL (≈ 21.1 µM) | MIC [3]: > 50 µg/mL | MIC (Escherichia coli): 25 µg/mL (≈ 105 µM) | MIC [4]: 10 µg/mL (≈ 42.1 µM) | MIC (Penicillium italicum): 1 µg/mL (≈ 4.21 µM) | MIC (Pseudomonas fluorescens): 50 µg/mL (≈ 211 µM) | MIC (Euglena gracilis): 1 µg/mL (≈ 4.21 µM) | MIC (Scenedesmus obliquus): 10 µg/mL (≈ 42.1 µM) | MIC (Aspergillus niger): 1 µg/mL (≈ 4.21 µM) | MIC (Chlorella pyrenoidosa): 1 µg/mL (≈ 4.21 µM) | MIC (Rhizopus stolonifer): 1 µg/mL (≈ 4.21 µM) | MIC (Pencillium vermiculatum): 10 µg/mL (≈ 42.1 µM) | MIC (Pseudomonas aeruginosa): 50 µg/mL (≈ 211 µM) | MIC (Enterobacter aerogenes): > 50 µg/mL | MIC (Aspergillus oryzae): 1 µg/mL (≈ 4.21 µM) | MIC (Pencillium ochra-chloron): 10 µg/mL (≈ 42.1 µM) | MIC (Pencillium expansum): 5 µg/mL (≈ 21.1 µM) | MIC [5]: 10 µg/mL (≈ 42.1 µM)
Compound: CCOCCOC(=S)SCSC#N [Compound 1]
IC50 (Phoma herbarum): 5 µg/mL (≈ 21.1 µM) | 2-SM PE: concentration at which 50% mortality occurs [6]: .03%
